The values that follow come from US20090203577A1 (EXELIXIS, INC., priority 2005, published 2009).

Each structure is given as a SMILES string. Like-named read-outs stand apart in the source and are kept apart here.

In this assay the target is T1, human farnesoid X receptor (Homo sapiens, UniProt Q96RI1).
T1 construct: CMX-farnesoid X receptor (full length human farnesoid X receptor); expressed in transfected cells; host or cells: CV-1 African Green Monkey Kidney cells
T1 sequence (Q96RI1 1-472 isoform Q96RI1-2): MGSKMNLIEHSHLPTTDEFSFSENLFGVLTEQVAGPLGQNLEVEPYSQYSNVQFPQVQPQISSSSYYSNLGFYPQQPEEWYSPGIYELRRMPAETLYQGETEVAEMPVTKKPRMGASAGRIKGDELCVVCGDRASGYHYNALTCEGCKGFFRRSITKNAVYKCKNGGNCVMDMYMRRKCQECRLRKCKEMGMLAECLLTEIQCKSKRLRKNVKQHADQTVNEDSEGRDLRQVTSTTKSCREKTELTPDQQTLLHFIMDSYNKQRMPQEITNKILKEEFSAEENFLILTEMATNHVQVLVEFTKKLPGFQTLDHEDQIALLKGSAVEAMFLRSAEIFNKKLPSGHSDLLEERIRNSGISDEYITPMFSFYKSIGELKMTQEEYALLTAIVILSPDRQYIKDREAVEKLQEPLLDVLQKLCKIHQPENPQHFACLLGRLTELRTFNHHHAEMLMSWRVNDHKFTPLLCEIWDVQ
T1 sequence (P19793 1-462 partner): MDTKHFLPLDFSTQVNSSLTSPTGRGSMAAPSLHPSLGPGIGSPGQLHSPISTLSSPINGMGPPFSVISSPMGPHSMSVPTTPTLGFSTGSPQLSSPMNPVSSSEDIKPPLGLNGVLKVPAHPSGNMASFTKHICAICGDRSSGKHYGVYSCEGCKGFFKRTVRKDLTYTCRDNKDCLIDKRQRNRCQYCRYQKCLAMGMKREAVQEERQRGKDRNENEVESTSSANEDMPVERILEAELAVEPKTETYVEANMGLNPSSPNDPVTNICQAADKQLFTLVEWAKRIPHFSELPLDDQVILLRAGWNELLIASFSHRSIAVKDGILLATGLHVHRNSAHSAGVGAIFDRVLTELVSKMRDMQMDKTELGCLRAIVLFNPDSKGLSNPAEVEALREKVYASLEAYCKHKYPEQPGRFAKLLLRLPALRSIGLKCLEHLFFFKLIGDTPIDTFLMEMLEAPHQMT
The assay is described as follows: FXR in vitro assays (farnesoid X receptor/ECREx7 co-transfection assay, TR-FRET assay), Table I. The class given is cell-based. The conditions noted are these: for Emax: read-out: % Efficacy. The procedure: The basic co-transfection protocol for measuring the farnesoid X receptor activity is as follows. CV-1 African Green Monkey Kidney cells were plated 24 hours before transfection to achieve approximately 70-80 percent confluency. […] The assay was allowed to continue for an additional 18-20 hours, after which the cells were lysed, with lysis buffer (1% triton X 100, 10% glycerol, 5 mM Dithiothreitol, 1 mM EGTA, 25 mM Tricine, pH 7.8) and the luciferase activity measured in the presence of Luciferase assay buffer (0.73 mM ATP, 22.3 mm Tricine, 0.11 mM EGTA, 0.55 mM Luciferin, 0.15 mM Coenzyme A, 0.5 mM HEPES, 10 mM Magnesium sulphatc) on a standard luminometer plate reader (PE Biosystems, NorthStar Reader), using recommended operating instructions and conditions.
The dose response curves are generated from an 8 point curve with concentrations differing by ½ LOG units. Each point represents the average of 4 wells of data from a 384 well plate. A curve for the data is generated by using the equation:
Y=Bottom+(Top−Bottom)/(1+10̂((Log EC50−X)*HillSlope))
The EC50/IC50 is therefore defined as the concentration at which an agonist or antagonist elicits a response that is half way between the Top (maximum) and Bottom (baseline) values. The EC50/IC50 values represented are the averages of at least 3 independent experiments.
A general note: In TR-FRET formats the signal depends on donor and acceptor labels being close together.

Setting [1] is: agonist activity, one or more of the in vitro assays, read-out: EC50.

A word on the EC50: it is the concentration giving half of the maximal effect. Regarding `CC(C)OC(=O)C1=CN(C(=O)c2cccc(CN3CCN(C(=O)OC(C)(C)C)CC3)c2)CC(C)(C)c2c1[nH]c1ccccc21` [Example 166, 1-methyethyl 3-({3-[(4-{[(1,1-dimethylethyl)oxy]carbonyl}piperazin-1-yl)methyl]phenyl}carbonyl)-1,1-dimethyl-1,2,3,6-tetrahydroazepino[4,5-b]indole-5-carboxylate], the Emax is over 100%. For the same compound, under setting [1], the EC50 was in the range of 100 to 1000 nM.

As to `CC(C)OC(=O)C1=CN(C(=O)c2ccc(Cl)c(Cl)c2)CC(C)(C)c2c1[nH]c1ccccc21` [Example 148, 1-methylethyl 3-[(3,4-dichlorophenyl)carbonyl]-1,1-dimethyl-1,2,3,6-tetrahydroazepino[4,5-b]indole-5-carboxylate], the Emax is over 100%. Further, the EC50 under setting [1] was 10 to 100 nM.

With `CC1(C)CN(C(=O)c2ccc(F)c(F)c2)C=C(C(=O)OCCOCc2ccccc2)c2[nH]c3ccccc3c21` [Example 195, 2-[(phenylmethyl)oxy]ethyl 3-[(3,4-difluorophenyl)carbonyl]-1,1-dimethyl-1,2,3,6-tetrahydroazepino[4,5-b]indole-5-carboxylate], the Emax was over 100%. Besides, under setting [1], the EC50 is 100 to 1000 nM.

As to `COCCOc1ccc2c3c([nH]c2c1)C(C(=O)OC(C)C)=CN(C(=O)c1ccc(F)c(F)c1)CC3(C)C` [Example 105, 1-methylethyl 3-[(3,4-difluorophenyl)carbonyl]-1,1-dimethyl-8-{[2-(methyloxy)ethyl]oxy}-1,2,3,6-tetrahydroazepino[4,5-b]indole-5-carboxylate], the Emax was in the range of 80 to 100%. Also, the concentration giving a half-maximal response (EC50) under setting [1] was 100 to 1000 nM.

On to `CCN(CC)CCNC(=O)Oc1ccc2c3c([nH]c2c1)C(C(=O)OC(C)C)=CN(C(=O)c1ccc(F)c(F)c1)CC3(C)C` [Example 97, 1-methylethyl 8-[({[2-(diethylamino)ethyl]amino}carbonyl)oxy]-3-[(3,4-difluorophenyl)carbonyl]-1,1-dimethyl-1,2,3,6-tetrahydroazepino[4,5-b]indole-5-carboxylate], for which the concentration giving a half-maximal response (EC50) is 10 to 100 nM and the Emax was over 100%.

Consider `Cc1ccccc1C(=O)N1C=C(C(=O)OC(C)C)c2[nH]c3ccccc3c2C(C)(C)C1` [Example 68, 1-methylethyl 1,1-dimethyl-3-[(2-methylphenyl)carbonyl]-1,2,3,6-tetrahydroazepino[4,5-b]indole-5-carboxylate], for which the Emax is over 100%. The EC50 under setting [1] fell in the range of 10 to 100 nM.

As for `COc1ccc(C(=O)N2C=C(C(=O)OC(C)C)c3[nH]c4ccccc4c3C(C)(C)C2)cc1OC` [Example 100, 1-methylethyl 3-{[3,4-bis(methyloxy)phenyl]car-bonyl}-1,1-dimethyl-1,2,3,6-tetrahydroazepino[4,5-b]indole-5-carboxylate], the Emax is over 100%. Moreover, the half-maximal effective concentration (EC50) under setting [1] lay in the range of 10 to 100 nM.

Regarding `CC(C)OC(=O)C1=CN(C(=O)c2cccc(CN3CCN(S(=O)(=O)c4ccccc4)CC3)c2)CC(C)(C)c2c1[nH]c1ccccc21` [Example 167, 1-methylethyl 1,1-dimethyl-3-[(3-{[4-(phenylsulfonyl)piperazin-1-yl]methyl}phenyl)carbonyl]-1,2,3,6-tetrahydroazepino[4,5-b]indole-5-carboxylate], the Emax is over 100%. In addition, the EC50 under setting [1] lay within 100 to 1000 nM.

On to `CC(C)OC(=O)C1=CN(C(=O)c2cccc(CN3CCOCC3)c2)CC(C)(C)c2c1[nH]c1ccccc21` [Example 125, 1-methylethyl 1,1-dimethyl-3-{[3-(morpholin-4-ylmethyl)phenyl]carbonyl}-1,2,3,6-tetrahydroazepino[4,5-b]indole-5-carboxylate], for which the Emax was over 100%.

As for `CCN(CC)CCCOc1ccc2c3c([nH]c2c1)C(C(=O)OC(C)C)=CN(C(=O)c1ccc(F)c(F)c1)CC3(C)C` [Example 104], the Emax fell in the range of 60 to 80%. Moreover, under setting [1], the EC50 was 100 to 1000 nM.

With `CC(C)OC(=O)C1=CN(C(=O)c2cc(F)c(F)cc2F)CC(C)(C)c2c1[nH]c1ccccc21` [Example 79, 1-methylethyl 1,1-dimethyl-3-[(2,4,5-trifluorophenyl)carbonyl]-1,2,3,6-tetrahydroazepino[4,5-b]indole-5-carboxylate], the Emax was over 100%. Besides, the 50% effective concentration (EC50) under setting [1] is 1 to 10 nM.

For `Cc1cc(C(=O)N2C=C(C(=O)OC(C)C)c3[nH]c4ccccc4c3C(C)(C)C2)no1` [Example 109, 1-methylethyl 1,1-dimethyl-3-[(5-methylisoxazol-3-yl)carbonyl]-1,2,3,6-tetrahydroazepino[4,5-b]indole-5-carboxylate], the Emax was over 100%. Under setting [1], the EC50 was 100 to 1000 nM.

Take `CC(C)OC(=O)C1=CN(C(=O)c2cccc(CN3CCCN(C)CC3)c2)CC(C)(C)c2c1[nH]c1ccccc21` [Example 153, 1-methylethyl 1,1-dimethyl-3-({3-[(4-methyl-1,4-diazepan-1-yl)methyl]phenyl}carbonyl)-1,2,3,6-tetrahydroazepino[4,5-b]indole-5-carboxylate]: the Emax is over 100%. Moreover, the EC50 under setting [1] was in the range of 1000 to 10000 nM.

For `Cc1cc(C(=O)N2C=C(C(=O)OC(C)C)c3[nH]c4ccccc4c3C(C)(C)C2)ccc1F` [Example 144, 1-methylethyl 3-[(4-fluoro-3-methylphenyl)carbonyl]-1,1-dimethyl-1,2,3,6-tetrahydroazepino[4,5-b]indole-5-carboxylate], the Emax is over 100%. For the same compound, under setting [1], the EC50 lay within 1 to 10 nM.

Regarding `CCN1CCN(Cc2cccc(C(=O)N3C=C(C(=O)OC(C)C)c4[nH]c5ccccc5c4C(C)(C)C3)c2)CC1` [Example 120, 1-methylethyl 3-({3-[(4-ethylpiperazin-1-yl)methyl]phenyl}carbonyl)-1,1-dimethyl-1,2,3,6-tetrahydroazepino[4,5-b]indole-5-carboxylate], the Emax is over 100%. In addition, the half-maximal effective concentration (EC50) under setting [1] lay in the range of 100 to 1000 nM.

With `CC1(C)CN(C(=O)c2ccc(F)c(F)c2)C=C(C(=O)CCl)c2[nH]c3ccccc3c21` [Example 121, 2-chloro-1-{3-[(3,4-difluorophenyl)carbonyl]-1,1-dimethyl-1,2,3,6-tetrahydroazepino[4,5-b]indol-5-yl}ethanone], the Emax is under 40%. In addition, the EC50 under setting [1] was in the range of 100 to 1000 nM.

On to `COC(=O)C1=CN(C(=O)c2ccc(F)c(F)c2)CC(C)(C)c2c1[nH]c1ccccc21` [Example 123, methyl 3-[(3,4-difluorophenyl)carbonyl]-1,1-dimethyl-1,2,3,6-tetrahydroazepino[4,5-b]indole-5-carboxylate], for which the Emax is over 100%. The EC50 under setting [1] lay within 100 to 1000 nM.

In the case of `CC(C)OC(=O)C1=CN(C(=O)c2cccc3c2OC(F)(F)O3)CC(C)(C)c2c1[nH]c1ccccc21` [Example 91, 1-methylethyl 3-[(2,2-difluoro-1,3-benzodioxol-4-yl)carbonyl]-1,1-dimethyl-1,2,3,6-tetrahydroazepino[4,5-b]indole-5-carboxylate], the Emax is over 100%. Besides, the EC50 under setting [1] is 10 to 100 nM.

Regarding `CC(C)OC(=O)C1=CN(C(=O)c2cc(CN3CCOCC3)ccc2F)CC(C)(C)c2c1[nH]c1ccccc21` [Example 155, 1-methylethyl 3-{[2-fluoro-5-(morpholin-4-ylmethyl)phenyl]carbonyl}-1,1-dimethyl-1,2,3,6-tetrahydroazepino[4,5-b]indole-5-carboxylate], the Emax was over 100%. In addition, under setting [1], the EC50 was 100 to 1000 nM.
